For assay [1], the target named is T1, human recombinant CBL-b (human Biotin CBL-b recombinant protein a.a. 39-426) (Homo sapiens, UniProt Q13191).
T1 construct: human Biotin CBL-b recombinant protein a.a; 39-426; Biotin (biotinylated); made in house
Nature of the assay: Biochemical assay for CBL-b inhibition (ligand displacement TR-FRET). The format is binding. The note with it: 50 nM CBL-b, 0.3 μM Bodipy FL-Probe, read-out: IC50 (CBL-b inhibition, group). A digest of the protocol:
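Ligand-displacement TR-FRET: 0.3 μM Bodipy FL probe competes with compound for 50 nM biotin-CBL-b (aa 39-426) after a 60 min RT compound pre-incubation; terbium-streptavidin detection, 60 min each step. Dose-response sigmoidal fitting gave IC50 and % maximum inhibition.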
(In TR-FRET formats the signal depends on donor and acceptor labels being close together.)

Assay [2] has as its system NFAT signaling pathway in Jurkat NFAT reporter cells. The experiment in a line: Jurkat NFAT reporter assay. The format is cell-based. The settings on record: Homo sapiens, 30 min with compound, then soluble anti-human CD3/CD28 antibody for 6 hours, luciferase readout, read-out: EC50 (Group). Here is the method: A human T lymphocyte Jurkat reporter cell line was further used to assess activation of the nuclear factor of activated T-cells (NFAT) signaling pathway by Cbl-b inhibitors. The reporter cell line is a genetically engineered Jurkat T cell line that expresses a luciferase reporter driven by an NFAT-response element (NFAT-RE). The Cbl-b inhibitor was incubated with 1×10^5 Jurkat NFAT reporter cells per well for 30 minutes. Subsequently, cells were stimulated with soluble anti-human CD3/CD28 antibody for 6 hours resulting in NFAT-RE-mediated luminescence. The bioluminescent signal is detected and quantified using Bio-Glo™ Luciferase Assay System. Readouts were reported as fold change over baseline. Here, baseline was the measurement obtained from Jurkat NFAT reporter cells stimulated with anti-CD3 antibody and anti-CD28 antibody, where the cells were not incubated with a Cbl-b inhibitor.

T1 sequence (Q13191 39-426): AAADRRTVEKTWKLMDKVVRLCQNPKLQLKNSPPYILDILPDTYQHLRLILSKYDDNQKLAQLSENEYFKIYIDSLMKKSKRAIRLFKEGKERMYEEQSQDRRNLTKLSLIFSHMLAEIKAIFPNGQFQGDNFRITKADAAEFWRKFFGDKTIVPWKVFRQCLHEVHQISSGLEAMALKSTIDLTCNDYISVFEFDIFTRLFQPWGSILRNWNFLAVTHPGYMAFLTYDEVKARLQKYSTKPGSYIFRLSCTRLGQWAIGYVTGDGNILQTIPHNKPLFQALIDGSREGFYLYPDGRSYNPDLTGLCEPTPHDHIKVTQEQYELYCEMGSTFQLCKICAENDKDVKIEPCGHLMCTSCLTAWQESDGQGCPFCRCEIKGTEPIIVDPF

With `C[C@H]1CCCN(Cc2cc(Cl)nc(N3Cc4ccc([C@]5(Cc6nncn6C)C[C@@H](C#N)C5)cc4C3=O)c2)C1` (single isomer, unassigned) [Compound 179], the IC50 (as a rule, the point on the concentration scale where inhibition reaches its midpoint) in assay [1] is under 80 nM. Also, the EC50 (in general, the midpoint of the concentration-response curve) in assay [2] is under 300 nM.

As for `C[C@H]1CCCN(Cc2cc(Cl)nc(N3Cc4ccc([C@H](Cc5nncn5C)C(F)(F)F)cc4C3=O)c2)C1` (single isomer, unassigned) [Compound 181], the IC50 in assay [1] is under 80 nM. Further, in assay [2], the EC50 was 300 to 1000 nM.

Regarding `Cn1cnnc1CC1(c2ccc3c(c2)C(=O)N(c2cc(CNC[C@H]4CCCO4)cc(Cl)n2)C3)COC1` (single isomer, unassigned) [Compound 195], in assay [1], the IC50 was under 80 nM. Also, the EC50 in assay [2] lay in the range of 1000 to 10000 nM.

For the compound `Cn1cnnc1CC1(c2ccc3c(c2)C(=O)N(c2cc(CNC[C@@H]4CCCO4)cc(Cl)n2)C3)COC1` (single isomer, unassigned) [Compound 196], the IC50 in assay [1] was under 80 nM. In addition, the EC50 in assay [2] was under 300 nM.

`CC(NCC1CC1(F)F)c1cc(Cl)nc(N2Cc3ccc(C4(Cc5nncn5C)COC4)cc3C2=O)c1` (single isomer, unassigned) [Compound 206, 2-(6-Chloro-4-(1-(((2,2-difluorocyclopropyl)methyl)amino)ethyl)pyridin-2-yl)-6-(3-((4-methyl-4H-1,2,4-triazol-3-yl)methyl)oxetan-3-yl)isoindolin-1-one]: the IC50 in assay [1] is under 80 nM. The EC50 in assay [2] was under 300 nM.

Turning to `CC(NCC1CCC1)c1cc(Cl)nc(N2Cc3ccc(C4(Cc5nncn5C)COC4)cc3C2=O)c1` (single isomer, unassigned) [Compound 213, 2-(6-Chloro-4-(1-((cyclobutylmethyl)amino)ethyl)pyridin-2-yl)-6-(3-((4-methyl-4H-1,2,4-triazol-3-yl)methyl)oxetan-3-yl)isoindolin-1-one], the IC50 in assay [1] was under 80 nM. In addition, the EC50 in assay [2] is under 300 nM.

For the compound `C[C@H](NCc1cscn1)c1cc(Cl)nc(N2Cc3ccc(C4(Cc5nncn5C)COC4)cc3C2=O)c1` (single isomer, unassigned) [Compound 218], the IC50 in assay [1] is under 80 nM. Also, in assay [2], the EC50 lay within 300 to 1000 nM.

Turning to `C[C@@H](NC[C@@H]1CCCO1)c1cc(Cl)nc(N2Cc3ccc(C4(Cc5nncn5C)COC4)cc3C2=O)c1` (single isomer, unassigned) [Compound 219], the IC50 in assay [1] is under 80 nM. Further, the EC50 in assay [2] is under 300 nM.

Turning to `C[C@@H](NCC1CC(F)(F)C1)c1cc(Cl)nc(N2Cc3ccc(C4(Cc5nncn5C)COC4)cc3C2=O)c1` (single isomer, unassigned) [Compound 221], the IC50 in assay [1] is under 80 nM. In assay [2], the EC50 is under 300 nM.

For `C[C@H](NCC1CC(F)(F)C1)c1cc(Cl)nc(N2Cc3ccc(C4(Cc5nncn5C)COC4)cc3C2=O)c1` (single isomer, unassigned) [Compound 222], in assay [1], the IC50 is under 80 nM. In addition, in assay [2], the EC50 is under 300 nM.

On to `C[C@H](NCc1cc(Cl)nc(N2Cc3ccc(C4(Cc5nncn5C)COC4)cc3C2=O)c1)C1CC1` (single isomer, unassigned) [Compound 223], for which the IC50 in assay [1] was under 80 nM. The EC50 in assay [2] is under 300 nM.

Regarding `C[C@@H](NCc1cc(Cl)nc(N2Cc3ccc(C4(Cc5nncn5C)COC4)cc3C2=O)c1)C1CC1` (single isomer, unassigned) [Compound 224], the 50% inhibitory concentration (IC50) in assay [1] is under 80 nM. For the same compound, the EC50 in assay [2] was 300 to 1000 nM.

Regarding `C[C@H](NC1CCCC1)c1cc(Cl)nc(N2Cc3ccc(C4(Cc5nncn5C)COC4)cc3C2=O)c1` (single isomer, unassigned) [Compound 231], in assay [1], the IC50 is under 80 nM. The EC50 in assay [2] is under 300 nM.

On to `C[C@@H](NC1CCCC1)c1cc(Cl)nc(N2Cc3ccc(C4(Cc5nncn5C)COC4)cc3C2=O)c1` (single isomer, unassigned) [Compound 232], for which, in assay [1], the IC50 is under 80 nM. In assay [2], the EC50 is under 300 nM.

With `Cn1cnnc1C[C@]1(c2ccc3c(c2)C(=O)N(c2cc(CNCC4CC4)cc(Cl)n2)C3)C[C@H](C#N)C1` (single isomer, unassigned) [Compound 233, (1r,3r)-3-(2-(6-Chloro-4-(((cyclopropylmethyl)amino)methyl)pyridin-2-yl)-3-oxoisoindolin-5-yl)-3-((4-methyl-4H-1,2,4-triazol-3-yl)methyl)cyclobutane-1-carbo-nitrile], in assay [1], the IC50 was under 80 nM. Also, the EC50 in assay [2] is under 300 nM.

On to `Cn1cnnc1C[C@]1(c2ccc3c(c2)C(=O)N(c2cc(CNCC4CC4)cc(Cl)n2)C3)C[C@@H](C#N)C1` (single isomer, unassigned) [Compound 234, (1s,3s)-3-(2-(6-Chloro-4-(((cyclopropylmethyl)amino)methyl)pyridin-2-yl)-3-oxoisoindolin-5-yl)-3-((4-methyl-4H-1,2,4-triazol-3-yl)methyl)cyclobutane-1-carbonitrile], for which the IC50 in assay [1] is under 80 nM. For the same compound, in assay [2], the EC50 lay within 1000 to 10000 nM.

`C[C@H](N[C@H](C)c1cc(Cl)nc(N2Cc3ccc(C4(Cc5nncn5C)COC4)cc3C2=O)c1)C1CC1` (single isomer, unassigned) [Compound 239]: the IC50 in assay [1] is under 80 nM. The EC50 in assay [2] was under 300 nM.

Turning to `C[C@H](N[C@H](C)C1CC1)c1cc(Cl)nc(N2Cc3ccc(C4(Cc5nncn5C)COC4)cc3C2=O)c1` (single isomer, unassigned) [Compound 240], the IC50 in assay [1] is under 80 nM. The EC50 in assay [2] is under 300 nM.

As to `Cn1cnnc1C[C@]1(c2ccc3c(c2)C(=O)N(c2cc(CNCC4CCC4)cc(Cl)n2)C3)C[C@H](C#N)C1` (single isomer, unassigned) [Compound 244, (1r,3r)-3-(2-(6-Chloro-4-(((cyclobutylmethyl)amino)methyl)pyridin-2-yl)-3-oxoisoindolin-5-yl)-3-((4-methyl-4H-1,2,4-triazol-3-yl)methyl)cyclobutane-1-carbonitrile], the IC50 in assay [1] is under 80 nM. Besides, the EC50 in assay [2] was under 300 nM.

As to `C[C@H](N[C@@H](C)C1CC1)c1cc(Cl)nc(N2Cc3ccc(C4(Cc5nncn5C)COC4)cc3C2=O)c1` (single isomer, unassigned) [Compound 246], in assay [1], the IC50 was under 80 nM. Further, in assay [2], the concentration giving a half-maximal response (EC50) was under 300 nM.

With `C[C@H]1CCCN(Cc2cc(F)cc(N3Cc4ccc(C5(Cc6nncn6C)COC5)cc4C3=O)c2)C1` [Compound 3, (S)-2-(3-Fluoro-5-((3-methylpiperidin-1-yl)methyl)phenyl)-6-(3-((4-methyl-4H-1,2,4-triazol-3-yl)methyl)oxetan-3-yl)isoindolin-1-one], the IC50 in assay [1] was under 80 nM. Further, the EC50 in assay [2] was in the range of 1000 to 10000 nM.

As for `COc1cc(CN2CCC[C@H](C)C2)cc(N2Cc3ccc(C4(Cc5nncn5C)COC4)cc3C2=O)c1` [Compound 5, (S)-2-(3-Methoxy-5-((3-methylpiperidin-1-yl)methyl)phenyl)-6-(3-((4-methyl-4H-1,2,4-triazol-3-yl)methyl)oxetan-3-yl)isoindolin-1-one], the concentration for half-maximal inhibition (IC50) in assay [1] was 80 to 300 nM. Further, the EC50 in assay [2] was 1000 to 10000 nM.

Take `C[C@H]1CCCN(Cc2cc(C3CC3)cc(N3Cc4ccc(C5(Cc6nncn6C)COC5)cc4C3=O)c2)C1` [Compound 7, (S)-2-(3-Cyclopropyl-5-((3-methylpiperidin-1-yl)methyl)phenyl)-6-(3-((4-methyl-4H-1,2,4-triazol-3-yl)methyl)oxetan-3-yl)isoindolin-1-one]: the IC50 in assay [1] lay in the range of 80 to 300 nM. Further, the EC50 in assay [2] is 300 to 1000 nM.

For `C[C@H]1CCCN(Cc2cccc(N3Cc4ccc(C5(Cc6nncn6C)COC5)cc4C3=O)c2)C1` [Compound 8, (S)-6-(3-((4-Methyl-4H-1,2,4-triazol-3-yl)methyl)oxetan-3-yl)-2-(3-((3-methyl-piperidin-1-yl)methyl)phenyl)isoindolin-1-one], in assay [1], the IC50 was in the range of 300 to 5000 nM. In addition, in assay [2], the EC50 lay in the range of 1000 to 10000 nM.

`C=Cc1cc(CN2CCC[C@H](C)C2)cc(N2Cc3ccc(C4(Cc5nncn5C)COC4)cc3C2=O)c1` [Compound 9, (S)-6-(3-((4-Methyl-4H-1,2,4-triazol-3-yl)methyl)oxetan-3-yl)-2-(3-((3-methyl-piperidin-1-yl)methyl)-5-vinylphenyl)isoindolin-1-one]: in assay [1], the IC50 is 80 to 300 nM. The EC50 in assay [2] was 300 to 1000 nM.

For the compound `C[C@H]1CCCN(Cc2cc(Br)cc(N3Cc4ccc(C5(Cc6nncn6C)COC5)cc4C3=O)c2)C1` [Compound 10, (S)-2-(3-Bromo-5-((3-methylpiperidin-1-yl)methyl)phenyl)-6-(3-((4-methyl-4H-1,2,4-triazol-3-yl)methyl)oxetan-3-yl)isoindolin-1-one], in assay [1], the IC50 was under 80 nM. In addition, the EC50 in assay [2] is under 300 nM.

Turning to `Cn1cnnc1CC1(c2ccc3c(c2)C(=O)N(c2cc(CNCC4CC4)cc(C(F)(F)F)c2)C3)COC1` [Compound 13, 2-(3-(((Cyclopropylmethyl)amino)methyl)-5-(trifluoromethyl)phenyl)-6-(3-((4-methyl-4H-1,2,4-triazol-3-yl)methyl)oxetan-3-yl)isoindolin-1-one], in assay [1], the IC50 is 80 to 300 nM. Besides, the EC50 in assay [2] was 1000 to 10000 nM.

The record behind these values is patent US20260226073A1 (AURIGENE ONCOLOGY LIMITED, priority 2023, published 2026).
